Among the data in patent US9174992B2, “Heterobicyclic compounds” (Amgen Inc., priority 2012, dated 2015) are IC50 values, retold here.

Several values for one entry are separate records, joined by “and”; a condition that tells them apart may be missing. Identical values can stand only once.

This experiment concerns the target PDE10A (UniProt Q9Y233). Briefly: PDE10 enzyme inhibition, IMAP TR-FRET assay (Example A, MPDE10A7 Enzyme Activity and Inhibition). It is filed as biochemical. Particulars: approximate IC50 value, Table 10. In a few lines:
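Compounds were preincubated 60 min at room temperature with PDE10A enzyme or tissue homogenate, then fluorescein-labeled cAMP or cGMP was added for 90 min. After stopping with IMAP binding reagents, TR-FRET was read and IC50s were fitted with a four-parameter logistic equation.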

Molecule `O=c1n(C2CC2)c2nccnc2n1[C@H]1C[C@H](Nc2nc3ccccc3o2)C1` [Example 220, 1-(trans-3-(benzo[d]oxazol-2-ylamino)cyclobutyl)-3-cyclopropyl-1H-imidazo[4,5-b]pyrazin-2(3H)-one] displayed an IC50 of 2.35 nM.
On to `Fc1ccc2nc(N[C@H]3C[C@H](n4c(C5CC5)nc5cccnc54)C3)ccc2c1` [Example 7, N-(trans-3-(2-cyclopropyl-3H-imidazo[4,5-b]pyridin-3-yl)cyclobutyl)-6-fluoroquinolin-2-amine], for which the IC50 was 1.41 nM.
Consider `CC1(C)C(=O)N([C@H]2C[C@H](Nc3ncc(Br)cn3)C2)c2ncccc21` [Example 60, 1-(Trans-3-((5-bromopyrimidin-2-yl)amino)cyclobutyl)-3,3-dimethyl-1H-pyrrolo[2,3-b]pyridin-2(3H)-one], for which the midpoint of inhibition, the IC50, lay at 19.3 nM.
The molecule `CC1(C)C(=O)N([C@H]2C[C@H](Nc3ccc(C4CC4)cn3)C2)c2ncccc21` [Example 41, 1-(Trans-3-((5-cyclopropylpyridin-2yl)amino)cyclobutyl)-3,3-dimethyl-1H-pyrrolo[2,3-b]pyridin-2(3H)-one] registered an IC50 of 0.329 nM.
Under `COc1cnc(N[C@H]2C[C@H](N3C(=O)C(C)(C)c4cccnc43)C2)nc1` [Example 83, 1-(trans-3-((5-methoxypyrimidin-2-yl)amino)cyclobutyl)-3,3-dimethyl-1H-pyrrolo[2,3-b]pyridin-2(3H)-one] stands 7.72 nM; under `O=C1N([C@H]2C[C@H](Nc3nc4ccccc4s3)C2)c2ncc(Cl)cc2C1(F)F` [Example 211, 1-(trans-3-(benzo[d]thiazol-2-ylamino)cyclobutyl)-5-chloro-3,3-difluoro-1H-pyrrolo[2,3-b]pyridin-2(3 H)-one], 0.111 nM.
Take `CC1(C)C(=O)N([C@H]2C[C@H](Nc3nc(-c4ccccc4)cs3)C2)c2ncccc21` [Example 69, 3,3-Dimethyl-1-(trans-3-((4-phenylthiazol-2-yl)amino)cyclobutyl)-1H-pyrrolo[2,3-b]pyridine-2(3H)-one]: the midpoint of inhibition, the IC50, lay at 167 nM.
On to `O=c1n(C2CC2)c2cncnc2n1[C@H]1C[C@H](Nc2nc3ccccc3s2)C1` [Example 91, 9-(trans-3-(benzo[d]thiazol-2-ylamino)cyclobutyl)-7-cyclopropyl-7H-purin-8(9H)-one], for which the IC50 worked out at 0.469 nM.
`c1ccc2sc(N[C@H]3C[C@H](n4nc(C5CC5)c5cccnc54)C3)nc2c1` [Example 114, N-(trans-3-(3-cyclopropyl-1H-pyrazolo[3,4-b]pyridin-1-yl)cyclobutyl)benzo[d]thiazol-2-amine] had an IC50 of 0.152 nM.
For `O=c1n(C2CC2)c2nccnc2n1[C@H]1C[C@H](Nc2ccc3cccnc3n2)C1` [Example 223, 1-(trans-3-((1,8-naphthyridin-2-yl)amino)cyclobutyl)-3-cyclopropyl-1H-imidazo[4,5-b]pyrazin-2(3 H)-one], 18.4 nM corresponded to half-maximal inhibition (IC50).
On to `c1ccc2nc(N[C@H]3C[C@H](n4c(C5CC5)nc5cccnc54)C3)ccc2c1` [Example 6, N-(Trans-3-(2-cyclopropyl-3h-imidazo[4,5-b]pyridin-3-yl)cyclobutyl)quinolin-2-amine], for which half-maximal inhibition (IC50) was put at 0.944 nM.
For `CC1(C)C(=O)N([C@H]2C[C@H](Nc3ccc(F)cn3)C2)c2ncccc21` [Example 54, 1-(Trans-3-((5-fluoropyridin-2-yl)amino)cyclobutyl)-3,3-dimethyl-1H-pyrrolo[2,3-b]pyridin-2(3H)-one], the IC50 worked out at 6.47 nM.
As for `CC1(C)C(=O)N([C@H]2C[C@H](Nc3ncc4ccccc4n3)C2)c2ncccc21` [Example 166, 3,3-dimethyl-1-(trans-3-(quinazolin-2-ylamino)cyclobutyl)-1H-pyrrolo[2,3-b]pyridin-2(38)-one], the midpoint of inhibition, the IC50, lay at 1120 nM.
Consider `Cn1c(=O)n([C@H]2C[C@H](Nc3nc4ccccc4s3)C2)c2ncccc21` [Example 88, 3-(trans-3-(benzo[d]thiazol-2-ylamino)cyclobutyl)-1-methyl-1H-imidazo[4,5-b]pyridin-2(3H)-one], for which the IC50 was determined as 0.0911 nM.
The value for `O=c1n(C2CC2)c2nccnc2n1[C@H]1C[C@H](Nc2nc3ccc(Cl)cc3o2)C1` [Example 229, 1-(trans-3-((6-chlorobenzo[d]oxazol-2-yl)amino)cyclobutyl)-3-cyclopropyl-1H-imidazo[4,5-b]pyrazin-2(3H)-one] was 10.1 nM; that for `COc1ccc(N[C@H]2C[C@H](N3C(=O)C(C)(C)c4cccnc43)C2)nc1` [Example 39] was 0.212 nM.
The molecule `Cc1ccc(N[C@H]2C[C@H](N3C(=O)C(C)(C)c4cccnc43)C2)nc1` [Example 38, 3,3-Dimethyl-1-(trans-3-(5-methylpyridin-2-yl)amino)cyclobutyl-1H-pyrrolo[2,3-b]pyridin-2(3H)-one] registered an IC50 of 0.166 nM.
Take `CC1(C)C(=O)N([C@H]2C[C@H](Nc3nccc(C(F)(F)F)n3)C2)c2ncccc21` [Example 67]: the IC50 was 35.6 nM and 59 nM.
Consider `O=C1N([C@H]2C[C@H](Nc3nc4ccccc4s3)C2)c2ncccc2C12CCOCC2` [Example 37, 1′-(Trans-3-(benzo[d]thiazol-2-ylamino)cyclobutyl)-2,3,5,6-tetrahydrospiro[pyran-4,3′-pyrrolo[2,3-b]pyridin]-2′(1′H)-one], for which it took 0.14 nM to reach half-maximal inhibition (IC50).
On to `O=c1n(C2CC2)c2nccnc2n1[C@H]1C[C@H](Nc2nc3ccccc3s2)C1` [Example 90, 1-(trans-3-(benzo[d]thiazol-2-ylamino)cyclobutyl)-3-cyclopropyl-1H-imidazo[4,5-b]pyrazin-2(3H)-one], for which it took 0.388 nM to reach half-maximal inhibition (IC50).
`Cn1c(=O)n([C@H]2C[C@@H](Nc3nc4ccccc4s3)C2)c2ncccc21` [Example 138]: the IC50 is 4.74 nM and 2.62 nM.
The value for `Cn1c(=O)n([C@H]2C[C@@H](N(C)c3nc4ccccc4s3)C2)c2ncccc21` [Example 106, 3-(cis-3-(benzo[d]thiazol-2-yl(methyl)amino)cyclobutyl)-1-methyl-1H-imidazo[4,5-b]pyridin-2(3H)-one] was 43.1 nM; that for `Clc1ccc2ncc(N[C@H]3C[C@H](n4c(C5CCOCC5)nc5cccnc54)C3)nc2c1` [Example 17, 7-Chloro-N-(trans-3-(2-(tetrahydro-2H-pyran-4-yl)-3H-imidazo[4,5-b]pyridin-3-yl)cyclobutyl)quinoxalin-2-amine] was 28.4 nM.
In turn, “(R)-1-(trans-3-(benzo[d]thiazol-2-ylamino)cyclobutyl)-3-hydroxy-3-methyl-1H-pyrrolo[2,3-b]pyridin-2(3H)-one and (S)-1-(trans-3-(benzo[d]thiazol-2-ylamino)cyclobutyl)-3-hydroxy-3-methyl-1H-pyrrolo[2,3-b]pyridin-2(3H)-one [Example 181]” returned an IC50 of 2.86 nM.
